Where a SMILES comes first, the peptide text is derived from it. Where no end group is shown, it is not given here. [ ]: non-standard residue; d: D form. pGlu = O=C1CC[C@@H](C(=O)O)N1
Key:
HCMV strain AD169 = assay: HCMV plaque formation assay in MRC-5 cells; details: for inhibition of HCMV plaque formation as compared to the virus control experiment: 10 micrograms per ml, 7-10 days, MRC-5 cells
murine spleen cells = assay: Th1/Th2 cytokine profiling assay (Ovalbumin-restimulated spleen cells, CBA kit); type: cell-based, Balb/c mice; details: 10 micrograms per ml, 72 hours; for production of IL-5, decreased by: numbers are decreases; for production of IL-5, decreased by / production of IFN-y, induced/increased by / production of IL-2, induced/increased by / production of TNF-alpha, induced by (increase): words state no change; for production of IFN-y, induced/increased by / production of IL-2, induced/increased by / production of TNF-alpha, induced by (increase): numbers are increases
Description: The Balb/c mice (originated in 1923, it is a popular strain and is used in many different research disciplines. Also classified as an inbred from the production of 20 or more successive brother-sister matings, the Balb/c mouse is albino and small in size) were immunized on Days 1, 15, and 29 with Ovalbumin (Ovalbumin is the main protein found in egg white, commonly used to stimulate an immunological reaction in test animals) in PBS (5 micrograms/injection). On day 50, spleens of the mice were harvested (3 weeks after last boost with Ovalbumin). Cells were cultured (2×10^5/well in triplicate) and incubated with culture medium or test peptides−10 micrograms per ml−for 30 min. Thereafter, additional Ovalbumin was added to the cells at 10 micrograms/ml for in vitro restimulation of the cells. 72 hours later, cell supernatants were harvested and assayed using the Becton Dickinson Mouse Th1/Th2 Cytokine CBA Kit. This kit can be used to measure Interleukin-2 (IL-2), Interleukin-4 (IL-4), Interleukin-5 (IL-5), Interferon-γ (IFN-γ), and Tumor Necrosis Factor-α (TNF-α) protein levels in a single sample.

[1] = system: hepatitis B virus (HBV) ayw strain; assay: HBV assay, secreted HBV DNA by TaqMan PCR in HepG2-2.2.15 cells; type: cell-based; details: 10 micrograms per ml; six days; HBV DNA in supernatant
HUVEC = assay: Endothelial tube formation assay; type: cell-based, human; details: 10 micrograms per ml; 20 hours
Text: […] control wes vehicle only. […] Raw data were expressed as average tubule lenghs in pixels±standard deviation.

[2] = system: Primary Human endothelial cells (HUVEC); assay: Endothelial cell migration assay; type: cell-based; details: 10 micrograms per ml; 22 hours
Description: Thereafter, designated concentration of testing peptides−10 micrograms per ml−was added in duplicate wells.

Compound	antiviral activity of positive control compound (HCMV strain AD169; HCMV in MRC-5 cells)	production of IL-4, induced/increased by (murine spleen cells; increase)	production of IL-5, decreased by (murine spleen cells)	production of IFN-y, induced/increased by (murine spleen cells)	production of IL-2, induced/increased by (murine spleen cells)	production of TNF-alpha, induced by (increase) (murine spleen cells)	inhibition of HBV replication as compared to the virus control infection [1]	inhibition of the tube formation of human endothelial cells (HUVEC)	inhibition of the migration of human endothelial cells [2]	inhibition of HCMV plaque formation as compared to the virus control experiment (HCMV strain AD169)	production of IL-4, decreased by (murine spleen cells; decrease)
Nc1nc(O)c2ncn(COC(CO)CO)c2n1 [Ganciclovir, reference compound]	expected levels of antiviral activity	–	–	–	–	–	–	–	–	–	–
CCNC(=O)[C@@H]1CCCN1C(=O)[C@H](CCCNC(=N)N)NC(=O)[C@H](CC(C)C)NC(=O)CNC(=O)[C@H](Cc1ccc(O)cc1)NC(=O)[C@H](CO)NC(=O)[C@H](Cc1c[nH]c2ccccc12)NC(=O)[C@H](Cc1c[nH]cn1)NC(=O)[C@@H]1CCC(=O)N1 [Peptide 1] ([pGlu]HWSYGLRP-NHEt)	–	139.7%	did not significantly change	114.7%	168.2%	27.5%	47.1%	11%	26%	2.1%	–
YGGFMTSEKSQTPLVTLFKNAIIKNAY [Peptide 2]	–	–	48.1%	did not significantly change	did not significantly change	did not significantly change	0%	11%	no effect	0.7%	31.5%

— patent publication US20100173845A1, “USE OF FERTIRELIN AND DELTA-ENDORPHIN AS THERAPEUTIC AGENTS” (priority 2007, published 2010)
